The values that follow come from paper PMC5793070, “Bacillibactin and Bacillomycin Analogues with Cytotoxicities against Human Cancer Cell Lines from Marine Bacillus sp. PKU-MA00093 and PKU-MA00092” (Marine Drugs, 2018).

The subject of data set [1] is breast cancer cell line MCF7. The data set is described as follows: MTT cytotoxicity assay against MCF7. As for the experimental part: (§1) Two human cancer cell lines, liver cancer cell line HepG2, and breast cancer cell line MCF7, were used in the assays.
(§2) HepG2 and MCF7 cell lines were purchased from Peking Union Medical College, Cell Bank (Beijing, China). In this study, the cells were grown in Dulbecco’s modified Eagle’s medium (Hyclone, Waltham, MA, USA), supplemented with 10% fetal bovine serum (FBS, PAN Biotech, Aidenbach, Germany), penicillin (100 U/mL), and streptomycin (100 µg/mL) in a humidified incubator containing 95% air and 5% CO2 at 37 °C. Cell viability was detected by MTT colorimetric assay. Briefly, the cells were treated with different concentrations of compounds (in DMSO stock) for 48 h, with taxol as the positive control. Then, culture supernatants were replaced with medium containing 0.5 mg/mL MTT for 4 h. The supernatant was removed and 100 μL of dimethyl sulfoxide was added. Absorbance was detected at 550 nm and cell viability was expressed as the mean percentage of the absorbance in treated vs. control cells. Different concentrations of compounds ranging from 0.1 to 40 µM were tested and each of the concentration was tested in parallel triplicate. Six concentration points in the slope region were used in the calculation of IC50 values. The IC50 values were calculated from the concentration–response curves that were generated by nonlinear regression with Graph Pad Prism 5 software (Graph Pad Software, Inc., San Diego, CA, USA).
A general note: Formazan colour is commonly taken as a measure of viable cells.

For data set [2], the system named is liver cancer cell line HepG2. The data set is described as follows: MTT cytotoxicity assay against HepG2. As for the experimental part:
as §1, §2

In data set [3] the test system is human cancer cell line A549. Conditions: lipopeptide proposed as bacillomycin D only based on LC-MS analysis; result in words; cited from earlier work. As for the experimental part:
(§3) Compounds 1–10 were tested for their antitumor activities.

Data set [4] has as its system human cancer cell line HCT-15. Conditions: lipopeptide proposed as bacillomycin D only based on LC-MS analysis; result in words; cited from earlier work. As for the experimental part: as §3
Data set [5] has as its system human cancer cell line A498. Conditions: lipopeptide proposed as bacillomycin D only based on LC-MS analysis; result in words; cited from earlier work. As for the experimental part:
as §3

Like-named read-outs stand apart in the source and are kept apart here. Numbered stars: 1 amine (or outer) side, 2 acyl side, 3 side chain; on linkers, the order of the positions; unused ones are H or OH. Square brackets hold non-standard residues; d marks the D form. Peptide text beside a SMILES is read from it. Hexadecanoyl(3R-amino) = CCCCCCCCCCCCC[C@H](CC(=O)[*:2])N[*:1]; X1 = CCC(C)CCCCCCCCCC[C@H](CC(=O)[*:2])N[*:1]; X3 = CC(C)CCCCCCCCCC[C@H](CC(=O)[*:2])N[*:1] A value given as a limit tells only on which side of the number the result lay.

The term IC50 denotes the concentration that inhibits the measured activity by half. With `CCC(C)CCCCCCCCCC[C@@H]1CC(=O)N[C@@H](CC(N)=O)C(=O)N[C@H](Cc2ccc(O)cc2)C(=O)N[C@H](CC(N)=O)C(=O)N2CCC[C@H]2C(=O)N[C@@H](CCC(=O)O)C(=O)N[C@H](CO)C(=O)N[C@@H]([C@@H](C)O)C(=O)N1` (stereo partly shown) [Compound 10, anteiso-C17 bacillomycin D] (cyclo(E[dS]T[X1]N[dY][dN]P)), the IC50 in data set [1] (human, 48 h) is 7.2 ± 0.2 µM; in data set [2] (human, 48 h), more than 10 µM.

For `CCCCCCCCCCCCC[C@@H]1CC(=O)N[C@@H](CC(N)=O)C(=O)N[C@H](Cc2ccc(O)cc2)C(=O)N[C@H](CC(N)=O)C(=O)N2CCC[C@H]2C(=O)N[C@@H](CCC(=O)O)C(=O)N[C@H](CO)C(=O)N[C@@H]([C@@H](C)O)C(=O)N1` [Compound 9, C16 bacillomycin D] (cyclo(E[dS]T[Hexadecanoyl(3R-amino)]N[dY][dN]P)), the concentration for half-maximal inhibition (IC50) stood at 3.3 ± 0.1 µM in data set [1] (human, 48 h) and 4.9 ± 0.2 µM in data set [2] (human, 48 h).

Take `CC(C)CCCCCCCCCC[C@@H]1CC(=O)N[C@@H](CC(N)=O)C(=O)N[C@H](Cc2ccc(O)cc2)C(=O)N[C@H](CC(N)=O)C(=O)N2CCC[C@H]2C(=O)N[C@@H](CCC(=O)O)C(=O)N[C@H](CO)C(=O)N[C@@H]([C@@H](C)O)C(=O)N1` [Compound 8, iso-C16 bacillomycin D] (cyclo(E[dS]T[X3]N[dY][dN]P)): the IC50 in data set [1] (human, 48 h) worked out at 2.9 ± 0.1 µM; in data set [2] (human, 48 h) it was 5.1 ± 0.2 µM.

As for bacillomycin D [Compound 5], in data set [1] (MCF7, at the concentration of 10 µM, MTT, 48 h, described as no cytotoxicities), the “inhibition rate, MCF7” value is on record as “below 20%”. For the same compound, in data set [3], the “inhibitory activities against A549” value is on record as “inhibitory activities”. In data set [4], the “inhibitory activities against HCT-15” value was “inhibitory activities”. Further, the “inhibitory activities against A498” value in data set [5] is reported as “inhibitory activities”. Further, in data set [2] (HepG2, at the concentration of 10 µM, MTT, 48 h, described as no cytotoxicities), the “inhibition rate, HepG2” value is recorded as “below 20%”.

Regarding `CC(=O)O[C@H]1C(=O)[C@@]2(C)[C@H]([C@H](OC(=O)c3ccccc3)[C@]3(O)C[C@H](OC(=O)[C@H](O)[C@@H](NC(=O)c4ccccc4)c4ccccc4)C(C)=C1C3(C)C)[C@]1(OC(C)=O)CO[C@@H]1C[C@@H]2O` [Taxol, reference compound], the IC50 in data set [1] (Homo sapiens, MCF7, 48 h, read-out: Cytotoxicity (IC50 Values in µM), MCF7) was 0.043 ± 0.003 µM; in data set [2] (Homo sapiens, HepG2, 48 h, read-out: Cytotoxicity (IC50 Values in µM), HepG2), 0.075 ± 0.004 µM.
